Test results as given in ChEMBL document CHEMBL3638768, “(aza)indole derivative and use thereof for medical purposes” (2015).

Target: Xanthine dehydrogenase/oxidase (Bos taurus, UniProt P80457)
Assay: Inhibition Assay: Test compounds were dissolved in DMSO (Wako) at 40 mM concentration and then diluted to intended concentrations with phosphate-buffered saline (PBS). Xanthine oxidase (from bovine milk, Sigma) was prepared with phosphate-buffered saline (PBS) at 0.02 units/mL, and then the solution was added to 96 well plates at 50 μL/well. In addition, test compounds diluted with PBS were added at 50 μL/well. Xanthine (Wako) at 200 μM prepared with PBS was added at 100 μL/well, and the reaction was conducted for 10 minutes at room temperature. Absorbance at 290 nm was measured using a microplate reader SpectraMax Plus 384 (Molecular device). The absorbance under a condition without xanthine is 0%, and control without test compounds is 100%.

Chain of Xanthine dehydrogenase/oxidase (P80457 whole entry): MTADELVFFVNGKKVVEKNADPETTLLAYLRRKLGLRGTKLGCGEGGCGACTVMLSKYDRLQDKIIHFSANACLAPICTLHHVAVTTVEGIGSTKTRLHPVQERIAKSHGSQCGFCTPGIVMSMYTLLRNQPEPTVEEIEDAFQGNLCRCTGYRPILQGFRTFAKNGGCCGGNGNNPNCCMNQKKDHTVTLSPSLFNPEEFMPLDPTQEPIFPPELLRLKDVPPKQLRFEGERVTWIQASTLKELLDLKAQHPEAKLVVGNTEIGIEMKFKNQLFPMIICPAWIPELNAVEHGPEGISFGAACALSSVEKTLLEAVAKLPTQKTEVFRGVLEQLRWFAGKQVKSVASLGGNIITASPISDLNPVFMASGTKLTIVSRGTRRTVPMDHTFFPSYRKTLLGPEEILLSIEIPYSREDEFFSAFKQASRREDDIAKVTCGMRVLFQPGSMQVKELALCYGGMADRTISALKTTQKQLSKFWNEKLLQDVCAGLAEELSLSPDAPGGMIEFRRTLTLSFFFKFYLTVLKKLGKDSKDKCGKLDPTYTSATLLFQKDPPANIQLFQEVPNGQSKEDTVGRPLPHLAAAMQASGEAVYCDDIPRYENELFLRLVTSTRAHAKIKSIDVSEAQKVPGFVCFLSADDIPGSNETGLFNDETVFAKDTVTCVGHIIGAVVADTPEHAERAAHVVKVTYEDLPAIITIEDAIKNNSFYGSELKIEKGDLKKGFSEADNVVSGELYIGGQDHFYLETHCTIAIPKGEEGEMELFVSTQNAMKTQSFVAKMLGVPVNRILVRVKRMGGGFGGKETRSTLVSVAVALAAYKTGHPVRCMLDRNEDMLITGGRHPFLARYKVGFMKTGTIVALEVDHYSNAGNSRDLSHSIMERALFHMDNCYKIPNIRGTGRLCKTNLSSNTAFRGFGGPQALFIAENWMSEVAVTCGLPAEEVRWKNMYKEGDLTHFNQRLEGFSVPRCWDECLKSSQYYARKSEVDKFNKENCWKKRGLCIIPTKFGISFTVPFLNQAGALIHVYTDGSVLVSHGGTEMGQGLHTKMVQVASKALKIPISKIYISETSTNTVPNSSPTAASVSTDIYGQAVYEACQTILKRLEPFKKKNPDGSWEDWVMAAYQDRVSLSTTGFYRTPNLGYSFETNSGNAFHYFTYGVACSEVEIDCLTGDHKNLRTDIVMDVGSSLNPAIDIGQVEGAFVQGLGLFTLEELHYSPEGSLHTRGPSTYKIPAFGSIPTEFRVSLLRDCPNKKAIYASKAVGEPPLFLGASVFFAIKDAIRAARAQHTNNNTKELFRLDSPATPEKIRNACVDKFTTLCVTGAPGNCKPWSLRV

IC50: 72.9 nM
Structure (SMILES): N#Cc1cn(-c2ccc(C(=O)O)cn2)c2ccccc12
